The source of these data is patent publication US9072734B2, “Quaternary ammonium salt compounds” (Teijin Pharma Limited, priority 2009, dated 2015).

Structures are written as SMILES. Counter-ions that a name gives are not always drawn.

In assay [1] the target is T1, human M3 muscarinic receptor (Homo sapiens, UniProt P20309).
T1 construct: expressed in transfected cells; host or cells: CHO-K1
Nature of the assay: Competition binding assays to human M3 muscarinic receptor ([3H]-NMS displacement, membrane fractions). Particulars: competition with 1 nM [3H]-NMS. How it is done:
Membrane fractions of human M3 muscarinic receptor were purchased from PerkinElmer, Inc. and stored at −80° C. until use. Phosphate buffered saline (PBS(−), Invitrogen, Co.) was used as assay buffer. The membrane fractions of human M3 muscarinic receptor (10-15 μg of membrane protein) and 1 nM L-[N-methyl-3H]scopolamine methyl chloride ([3H]—NMS) (NET636, 2.59 TBq/mmol, PerkinElmer, Inc.) were added to a final volume of 100 μL and incubated for 2 hours at room temperature (total binding). […] The amount of nonspecific binding was determined in the presence of 5 μM atoropine. […] The filter plates were washed three times with a washing solution (50 mM Tris hydrochloric acid pH 7.4, 0.9% sodium chloride) to remove unbound radioactivity. The plates were then dried and 40 μL Microscint-20 liquid TopCount microplate scintillation cocktail (PerkinElmer Inc.) was added and plates were counted in a Packard TopCount liquid scintillation counter (PerkinElmer, Inc.). The percentage of the binding inhibition by the test compound was calculated according to the following formula. (%)Percentage of binding inhibition=[(Radioactivity of test compound-added sample−Amount of nonspecific binding)/(Amount of total binding−Amount of nonspecific binding)]×100 […]

The target of assay [2] is T1, human M3 muscarinic receptor. As to the kind of experiment: Inhibitory effect on methacholine-induced calcium influx, FLIPR assay, CHO-K1 cells stably expressing the human M3 muscarinic receptor. In kind it is cell-based. Particulars: inhibition of calcium influx induced by methacholine. Summed up:
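Dye-loaded hM3 CHO-K1 cells were preincubated 180 s with compound solutions prepared at 10 two-fold concentrations (0.01–1000 nM). A 30 nM methacholine solution was then added. Fluorescence was traced for 170 s; max−min signal gave % inhibition against agonist and no-agonist controls, and IC50 came from a four-parameter logistic fit.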

Assay [3] has as its target T2, human β2 adrenergic receptor (Homo sapiens, UniProt P07550).
T2 construct: expressed in transfected cells; host or cells: CHO-K1
As to the kind of experiment: Whole-cell cAMP Flashplate assay using CHO-K1 cells stably expressing human β2 adrenergic receptor. It is filed as cell-based. Particulars: cAMP production. On the technique in general: Cyclic AMP is a second messenger, typically raised through Gs and lowered through Gi signalling.

T1 sequence (P20309 whole entry): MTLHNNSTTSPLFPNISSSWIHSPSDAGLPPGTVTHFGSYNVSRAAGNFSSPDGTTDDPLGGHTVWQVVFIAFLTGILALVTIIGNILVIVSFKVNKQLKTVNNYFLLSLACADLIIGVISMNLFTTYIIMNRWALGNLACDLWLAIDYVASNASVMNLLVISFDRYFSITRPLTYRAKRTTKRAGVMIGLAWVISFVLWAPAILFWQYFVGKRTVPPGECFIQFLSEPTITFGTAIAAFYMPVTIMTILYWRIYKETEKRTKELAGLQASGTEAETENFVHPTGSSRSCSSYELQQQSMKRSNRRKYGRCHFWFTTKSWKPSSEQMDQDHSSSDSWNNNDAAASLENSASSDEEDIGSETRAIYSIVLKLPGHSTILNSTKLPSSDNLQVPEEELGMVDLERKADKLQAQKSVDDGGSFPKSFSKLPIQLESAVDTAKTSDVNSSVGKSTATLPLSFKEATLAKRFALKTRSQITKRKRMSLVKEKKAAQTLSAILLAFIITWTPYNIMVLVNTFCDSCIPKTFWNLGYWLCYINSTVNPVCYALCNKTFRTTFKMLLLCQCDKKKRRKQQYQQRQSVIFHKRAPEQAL
T2 sequence (P07550 whole entry): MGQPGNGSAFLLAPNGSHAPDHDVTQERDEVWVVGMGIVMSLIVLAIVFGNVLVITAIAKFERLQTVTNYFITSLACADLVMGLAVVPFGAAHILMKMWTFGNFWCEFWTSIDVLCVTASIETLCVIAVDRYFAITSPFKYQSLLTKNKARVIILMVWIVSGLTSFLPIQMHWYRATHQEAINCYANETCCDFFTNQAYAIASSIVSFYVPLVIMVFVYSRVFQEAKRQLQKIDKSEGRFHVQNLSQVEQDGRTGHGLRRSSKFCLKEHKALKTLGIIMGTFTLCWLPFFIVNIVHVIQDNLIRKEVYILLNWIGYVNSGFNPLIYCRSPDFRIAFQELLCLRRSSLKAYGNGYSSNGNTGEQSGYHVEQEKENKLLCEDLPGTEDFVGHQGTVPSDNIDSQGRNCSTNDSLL

With `COc1cc(NC(=O)CCCCc2ccc(-c3ccccc3)c(NC(=O)OC3CC[N+](C)(C)CC3)c2)c(Cl)cc1CNC[C@H](O)c1ccc(O)c2[nH]c(=O)ccc12` [Example 51, 4-({[5-(4-{[2-chloro-4-({[(2R)-2-hydroxy-2-(8-hydroxy-2-oxo-1,2-dihydroquinolin-5-yl)ethyl]amino}methyl)-5-methoxyphenyl]carbamoyl}butyl)-2-phenylphenyl]carbamoyl}oxy)-1,1-dimethylpiperidin-1-ium trifluoroacetate], the IC50 in assay [1] was less than 10 nM; in assay [2], 13.2 nM. The same compound yielded an EC50 in assay [3] of 0.3 nM.
In the case of `C[N+]1(C)CCC(OC(=O)Nc2cc(CCC(=O)Nc3ccc(CNC[C@H](O)c4ccc(O)c5[nH]c(=O)ccc45)cc3)ccc2-c2ccccc2)CC1` [Example 1, 4-({[5-(2-{[4-({[(2R)-2-hydroxy-2-(8-hydroxy-2-oxo-1,2-dihydroquinolin-5-yl)ethyl]amino}methyl)phenyl]carbamoyl}ethyl)-2-phenylphenyl]carbamoyl}oxy)-1,1-dimethylpiperidin-1-ium trifluoroacetate], the IC50 in assay [1] is less than 10 nM; in assay [2], 6.4 nM. The compound also had an EC50 in assay [3] of 1.3 nM.

For orientation: IC50 means the point on the concentration scale where inhibition reaches its midpoint. One may read the EC50 as the midpoint of the concentration-response curve. High values mean a less potent agent, low ones a more potent agent.
